Data as given in ChEMBL document CHEMBL3046148, “Synthesis and biological evaluation of resveratrolcoumarin hybrid compounds as potential antitumor agents” (Med Chem Res, 2013).
pIC50: −log10 of the molar value.

Experiments:
Format in all cases: functional, cell-based
[1] = Cytotoxicity against Homo sapiens (human) HCT28 cells assessed as growth inhibition after 48 hr by MTT assay; details: for pIC50: Homo sapiens, 48 h, read-out: IC50
[2] = tested on: MCF7; assay: Cytotoxicity against Homo sapiens (human) MCF7 cells assessed as growth inhibition after 48 hr by MTT assay; details: for pIC50: Homo sapiens, MCF7, 48 h, read-out: IC50; for IC50: mcf7
[3] = tested on: K562; assay: Cytotoxicity against Homo sapiens (human) K562 cells assessed as growth inhibition after 48 hr by MTT assay; details: for pIC50: Homo sapiens, K562, 48 h, read-out: IC50; for IC50: k562

Structure (SMILES) | pIC50 [1] | pIC50 [2] | pIC50 [3] | IC50 [1] | IC50 [2] | IC50 [3]
COc1ccc(/C=C\c2ccc3oc(=O)c(-c4ccccc4)cc3c2)cc1 [CIS-6-(4-METHOXYSTYRYL)-3-PHENYLCOUMARIN] | 4.97 | 4.96 | 5.42 | – | – | –
COc1ccc(/C=C/c2ccc3oc(=O)c(-c4ccccc4)cc3c2)cc1 [TRANS-6-(4-METHOXYSTYRYL)-3-PHENYLCOUMARIN] | 5.42 | 5.14 | 4.89 | – | – | –
COc1ccc(/C=C\c2ccc3oc(=O)c(-c4ccc(OC)c(OC)c4)cc3c2)cc1 [CIS-3-(3,4-DIMETHOXYPHENYL)-6-(4-METHOXYSTYRYL)COUMARIN] | – | – | – | Not Active | Not Active | Not Active
COc1cc(/C=C/c2ccc3oc(=O)c(-c4ccc(OC)c(OC)c4)cc3c2)cc(OC)c1 [TRANS-3-(3,4-DIMETHOXYPHENYL)-6-(3,5-DIMETHOXYSTYRYL)COUMARIN] | 5.00 | 5.13 | – | – | – | Not Active
COc1ccc(/C=C/c2cc(OC)cc(OC)c2)cc1 [TRISMETHOXYRESVERATROL] | 5.32 | 5.08 | 5.19 | – | – | –
COc1ccc(-c2cc3cc(/C=C\c4cc(OC)cc(OC)c4)ccc3oc2=O)cc1 [CIS-6-(3,5-DIMETHOXYSTYRYL)-3-(4-METHOXYPHENYL)COUMARIN] | – | – | – | Not Active | Not Active | Not Active
COc1cc(/C=C\c2ccc3oc(=O)c(-c4ccc(OC)c(OC)c4)cc3c2)cc(OC)c1 [CIS-3-(3,4-DIMETHOXYPHENYL)-6-(3,5-DIMETHOXYSTYRYL)COUMARIN] | 4.87 | 5.05 | – | – | – | Not Active
COc1ccc(/C=C/c2ccc3oc(=O)c(-c4ccc(OC)c(OC)c4)cc3c2)cc1 [TRANS-3-(3,4-DIMETHOXYPHENYL)-6-(4-METHOXYSTYRYL)COUMARIN] | 5.15 | 5.37 | 5.06 | – | – | –
COc1cc(/C=C/c2ccc3oc(=O)c(-c4ccccc4)cc3c2)cc(OC)c1 [TRANS-6-(3,5-DIMETHOXYSTYRYL)-3-PHENYLCOUMARIN] | – | 4.87 | – | Not Active | – | Not Active
COc1ccc(-c2cc3cc(/C=C/c4ccccc4)ccc3oc2=O)cc1OC [TRANS-3-(3,4-DIMETHOXYPHENYL)-6-STYRYLCOUMARIN] | 4.97 | 4.84 | – | – | – | Not Active
COc1ccc(-c2cc3cc(/C=C/c4cc(OC)cc(OC)c4)ccc3oc2=O)cc1 [TRANS-6-(3,5-DIMETHOXYSTYRYL)-3-(4-METHOXYPHENYL)COUMARIN] | 4.72 | 4.95 | 4.94 | – | – | –
COc1ccc(-c2cc3cc(/C=C\c4ccccc4)ccc3oc2=O)cc1OC [CIS-3-(3,4-DIMETHOXYPHENYL)-6-STYRYLCOUMARIN] | – | – | – | Not Active | Not Active | Not Active
COc1cc(/C=C\c2ccc3oc(=O)c(-c4ccccc4)cc3c2)cc(OC)c1 [CIS-6-(3,5-DIMETHOXYSTYRYL)-3-PHENYLCOUMARIN] | – | – | – | Not Active | Not Active | Not Active
COc1ccc(-c2cc3cc(/C=C\c4ccccc4)ccc3oc2=O)cc1 [CIS-3-(4-METHOXYPHENYL)-6-STYRYLCOUMARIN] | – | – | – | Not Active | Not Active | Not Active
